For series [1] the following is noted: 101.33 kPa, Liquid, Vibrating tube method.
Series [2] in a line: refractive index (Na D-line) (dimensionless). Conditions: 101.33 kPa, Liquid, Standard Abbe refractometry.

For orientation: mass density means the mass of a sample divided by its volume. By refractive index is commonly meant the speed of light in vacuum divided by its phase velocity in the sample.

Numbers after ± are expanded uncertainties.

As for `CC(O)c1ccccc1` (configuration not stated) [1-phenylethanol], in series [1] (298.2 K), the mass density is 1006.48 ± 1.1 kg/m3. Further, the refractive index in series [2] (298.2 K) was 1.52467 ± 0.00042.

As for `CC(C)CC(=O)O` [3-methylbutanoic acid], the mass density in series [1] (298.2 K) was determined as 921.34 ± 1.1 kg/m3. Also, the refractive index in series [2] (298.2 K) is 1.40124 ± 0.00042.

`Clc1ccccc1` [chlorobenzene]: the mass density in series [1] (298.2 K) is reported as 1101.08 ± 1.1 kg/m3. Also, in series [2] (298.2 K), the refractive index was 1.52165 ± 0.00042.

On to `OC1CCCCC1` [cyclohexanol], for which the mass density in series [1] (303.2 K) is 941.42 ± 1.1 kg/m3. Moreover, the refractive index in series [2] (303.2 K) is 1.46238 ± 0.00042.

Turning to `CCCCCCCCCCO` [decan-1-ol], in series [1] (298.2 K), the mass density is listed as 826.41 ± 1 kg/m3. In addition, the refractive index in series [2] (298.2 K) stood at 1.43554 ± 0.00042.

Consider `c1ccc(COCc2ccccc2)cc1` [dibenzyl ether], for which, in series [1] (298.2 K), the mass density is 1039.32 ± 1.1 kg/m3. Further, the refractive index in series [2] (298.2 K) turned out to be 1.56019 ± 0.00042.
